Like-named read-outs stand apart in the source and are kept apart here.
Molecular target: GST-Bcl-2 (Homo sapiens (Human), UniProt P10415)
Assay: Time Resolved-Fluorescence Resonance Energy Transfer (TR-FRET) Bcl-2 binding assay
Outline: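 Competition TR-FRET: GST-Bcl-2 with fluorescent Bak peptide probe and Tb-anti-GST antibody, compounds serially diluted from 50 μM (2× start, 10% DMSO).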

[1] = GST-Bcl-2 1 nM, F-Bak peptide probe 100 nM, Tb-anti-GST antibody 1 nM, Ki by Wang's equation

GST-Bcl-2, sequence (P10415 whole entry): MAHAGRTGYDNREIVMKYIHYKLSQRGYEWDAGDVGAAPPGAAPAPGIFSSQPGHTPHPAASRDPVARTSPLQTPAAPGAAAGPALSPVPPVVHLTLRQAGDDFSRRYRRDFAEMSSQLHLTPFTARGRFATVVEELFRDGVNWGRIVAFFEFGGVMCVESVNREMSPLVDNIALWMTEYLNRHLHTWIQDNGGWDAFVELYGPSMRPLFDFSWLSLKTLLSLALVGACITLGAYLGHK

Structure (SMILES) | Ki [1] | Ki
CC1(C)CCC(CN2CCN(c3ccc(C(=O)NS(=O)(=O)c4ccc(NC5CCN(C6CCOCC6)CC5)c([N+](=O)[O-])c4)c(Oc4cc5cc[nH]c5c(F)c4F)c3)CC2)=C(c2ccc(Cl)cc2)C1 [Example 201, 4-(4-{[2-(4-chlorophenyl)-4,4-dimethylcyclohex-1-en-1-yl]methyl}piperazin-1-yl)-2-[(6,7-difluoro-1H-indol-5-yl)oxy]-N-({3-nitro-4-[(1-tetrahydro-2H-pyran-4-ylpiperidin-4-yl)amino]phenyl}sulfonyl)benzamide] | 0.01 nM | –
CC1(C)CCC(CN2CCN(c3ccc(C(=O)NS(=O)(=O)c4ccc(NCCCN5CCOCC5)c([N+](=O)[O-])c4)c(Oc4cccc(Cl)c4F)c3)CC2)=C(c2ccc(Cl)cc2)C1 [Example 148, 2-(3-chloro-2-fluorophenoxy)-4-(4-{[2-(4-chlorophenyl)-4,4-dimethylcyclohex-1-en-1-yl]methyl}piperazin-1-yl)-N-({4-[(3-morpholin-4-ylpropyl)amino]-3-nitrophenyl}sulfonyl)benzamide] | 0.106 nM | –
CC1(C)CCC(CN2CCN(c3ccc(C(=O)NS(=O)(=O)c4ccc(NC[C@@H]5CCCOC5)c([N+](=O)[O-])c4)c(Oc4cc5cc[nH]c5cc4F)c3)CC2)=C(c2ccc(Cl)cc2)C1 [Example 258, 4-(4-{[2-(4-chlorophenyl)-4,4-dimethylcyclohex-1-en-1-yl]methyl}piperazin-1-yl)-2-[(6-fluoro-1H-indol-5-yl)oxy]-N-[(3-nitro-4-{[(3S)-tetrahydro-2H-pyran-3-ylmethyl]amino}phenyl)sulfonyl]benzamide] | 0.083 nM | –
CC1(C)CCC(CN2CCN(c3ccc(C(=O)NS(=O)(=O)c4ccc(NC5CCN(Cc6ccsc6)CC5)c([N+](=O)[O-])c4)c(Oc4cccc(F)c4F)c3)CC2)=C(c2ccc(Cl)cc2)C1 [Example 136, 4-(4-{[2-(4-chlorophenyl)-4,4-dimethylcyclohex-1-en-1-yl]methyl}piperazin-1-yl)-2-(2,3-difluorophenoxy)-N-[(3-nitro-4-{[1-(thien-3-ylmethyl)piperidin-4-yl]amino}phenyl)sulfonyl]benzamide] | 0.177 nM | –
CC1(C)CCC(CN2CCN(c3ccc(C(=O)NS(=O)(=O)c4ccc(N[C@H]5CC[C@H](N6CCOCC6)CC5)c([N+](=O)[O-])c4)c(Oc4cc5cc[nH]c5cc4F)c3)CC2)=C(c2ccc(Cl)cc2)C1 [Example 234, Trans-4-(4-{[2-(4-chlorophenyl)-4,4-dimethylcyclohex-1-en-1-yl]methyl}piperazin-1-yl)-2-[(6-fluoro-1H-indol-5-yl)oxy]-N-({4-[(4-morpholin-4-ylcyclohexyl)amino]-3-nitrophenyl}sulfonyl)benzamide] | – | 0.099 nM
CC1(C)CCC(CN2CCN(c3ccc(C(=O)NS(=O)(=O)c4ccc(OCC#CCN5CCOCC5)c([N+](=O)[O-])c4)c(Oc4cc5cc[nH]c5cc4F)c3)CC2)=C(c2ccc(Cl)cc2)C1 [Example 317, 4-(4-{[2-(4-chlorophenyl)-4,4-dimethylcyclohex-1-en-1-yl]methyl}piperazin-1-yl)-2-[(6-fluoro-1H-indol-5-yl)oxy]-N-({4-[(4-morpholin-4-ylbut-2-ynyl)oxy]-3-nitrophenyl}sulfonyl)benzamide] | 0.205 nM | –
CCN1CCC(Nc2ccc(S(=O)(=O)NC(=O)c3ccc(N4CCN(CC5=C(c6ccc(Cl)cc6)CC(C)(C)CC5)CC4)cc3Oc3ccccc3Cl)cc2[N+](=O)[O-])CC1 [Example 47, 2-(2-chlorophenoxy)-4-(4-((2-(4-chlorophenyl)-4,4-dimethylcyclohex-1-en-1-yl)methyl)piperazin-1-yl)-N-((4-((1-ethylpiperidin-4-yl)amino)-3-nitrophenyl)sulfonyl)benzamide] | 0.05 nM | –
CC1(C)CCC(CN2CCN(c3ccc(C(=O)NS(=O)(=O)c4ccc(NC5CCN(C6CCOCC6)CC5)c([N+](=O)[O-])c4)c(Oc4ccc5nc(N)sc5c4)c3)CC2)=C(c2ccc(Cl)cc2)C1 [Example 232, 2-[(2-amino-1,3-benzothiazol-6-yl)oxy]-4-(4-{[2-(4-chlorophenyl)-4,4-dimethylcyclohex-1-en-1-yl]methyl}piperazin-1-yl)-N-({3-nitro-4-[(1-tetrahydro-2H-pyran-4-ylpiperidin-4-yl)amino]phenyl}sulfonyl)benzamide] | 1.05 nM | –
CC1(C)CCC(CN2CCN(c3ccc(C(=O)NS(=O)(=O)c4ccc(N[C@H]5CC[C@H](N6CCOCC6)CC5)c([N+](=O)[O-])c4)c(Oc4cnc(N)c(Cl)c4)c3)CC2)=C(c2ccc(Cl)cc2)C1 [Example 324, Trans-2-[(6-amino-5-chloropyridin-3-yl)oxy]-4-(4-{[2-(4-chlorophenyl)-4,4-dimethylcyclohex-1-en-1-yl]methyl}piperazin-1-yl)-N-({4-[(4-morpholin-4-ylcyclohexyl)amino]-3-nitrophenyl}sulfonyl)benzamide] | – | < 0.01 nM
CN1CCC(Nc2ccc(S(=O)(=O)NC(=O)c3ccc(N4CCN(CC5=C(c6ccc(Cl)cc6)CC(C)(C)CC5)CC4)cc3Oc3cccc(F)c3Cl)cc2[N+](=O)[O-])CC1 [Example 177, 2-(2-chloro-3-fluorophenoxy)-4-(4-{[2-(4-chlorophenyl)-4,4-dimethylcyclohex-1-en-1-yl]methyl}piperazin-1-yl)-N-({4-[(1-methylpiperidin-4-yl)amino]-3-nitrophenyl}sulfonyl)benzamide] | 0.037 nM | –
CC1(C)CCC(CN2CCN(c3ccc(C(=O)NS(=O)(=O)c4ccc(NCC5CN(C(CF)CF)CCO5)c([N+](=O)[O-])c4)c(Oc4cnc(N)c(Cl)c4)c3)CC2)=C(c2ccc(Cl)cc2)C1 (centres unmarked) [Example 378, 2-[(6-amino-5-chloropyridin-3-yl)oxy]-4-(4-{[2-(4-chlorophenyl)-4,4-dimethylcyclohex-1-en-1-yl]methyl}piperazin-1-yl)-N-({4-[({4-[2-fluoro-1-(fluoromethyl)ethyl]morpholin-2-yl}methyl)amino]-3-nitrophenyl}sulfonyl)benzamide] | < 0.01 nM | –
COc1ccc(Cn2nnc3c(Oc4cc(N5CCN(CC6=C(c7ccc(Cl)cc7)CC(C)(C)CC6)CC5)ccc4C(=O)NS(=O)(=O)c4ccc(NCC5CCOCC5)c([N+](=O)[O-])c4)cccc32)cc1 [Example 342, 4-(4-{[2-(4-chlorophenyl)-4,4-dimethylcyclohex-1-en-1-yl]methyl}piperazin-1-yl)-2-{[1-(4-methoxybenzyl)-1H-1,2,3-benzotriazol-4-yl]oxy}-N-({3-nitro-4-[(tetrahydro-2H-pyran-4-ylmethyl)amino]phenyl}sulfonyl)benzamide] | 3.34 nM | –
CC(c1ccccc1-c1ccc(Cl)cc1)N1CCN(c2ccc(C(=O)NS(=O)(=O)c3ccc(NCC4CCOCC4)c([N+](=O)[O-])c3)c(Oc3ccccc3Cl)c2)CC1 (centres unmarked) [Example 110, 4-{4-[1-(4′-chloro-1,1′-biphenyl-2-yl)ethyl]piperazin-1-yl}-2-(2-chlorophenoxy)-N-({3-nitro-4-[(tetrahydro-2H-pyran-4-ylmethyl)amino]phenyl}sulfonyl)benzamide] | 0.039 nM | –
CN(C)CCCNc1ccc(S(=O)(=O)NC(=O)c2ccc(N3CCN(Cc4ccccc4-c4ccc(Cl)cc4)CC3)cc2Oc2cccc(CO)c2)cc1[N+](=O)[O-] [Example 107, 4-(4-((4′-chloro-1,1′-biphenyl-2-yl)methyl)piperazin-1-yl)-N-((4-((3-(dimethylamino)propyl)amino)-3-nitrophenyl)sulfonyl)-2-(3-(hydroxymethyl)phenoxy)benzamide] | 0.331 nM | –

Source: patent publication US8952157B2, “Apoptosis-inducing agents for the treatment of cancer and immune and autoimmune diseases” (AbbVie Inc., priority 2008, dated 2015)
